Test results from patent US11926609B1, “6′-(3-chlorophenyl)-2′-ethoxy-3,4′-bipyridine-3′-carbonitrile as antimicrobial compounds” (KING FAISAL UNIVERSITY, priority 2023, dated 2024).

Legend:
Format in all cases: cell-based
[1] = system: Chrysosporium keratinophilum; assay: Agar plate disc-diffusion, antifungal inhibition zone; conditions: Sabouraud's dextrose agar, 72 h, DMSO zone subtracted
Procedure: (§1) The agar plate disc-diffusion method was applied. Sterilized filter papers (6 mm in diameter) were wetted with 10 μL of a solution of 6′-(3-chlorophenyl)-2′-ethoxy-3,4′-bipyridine-3′-carbonitrile (4) to be tested, containing […], and the discs were allowed to air dry. The discs were then placed onto the surface of agar plates (nutrient agar for bacteria and Sabouraud's dextrose agar for fungi) seeded with the test organism. Each plate contained 15 mL of the agar medium, previously seeded with 0.2 mL of the broth culture of each organism pregrown for 18 hours. The plates were incubated at 37° C. for 48 h, and 72 h for fungi. The inhibition zones were measured in mm. Discs impregnated with DMSO were used as a control, and its inhibition zone was subtracted from the tested compound actual inhibition zone.
(§2) The results of the antimicrobial testing can be observed in Tables 1 and 2, below, using ciprofloxacin as a reference.

Aspergillus flavus = assay: as above; conditions: Sabouraud's dextrose agar, 72 h, DMSO zone subtracted
Procedure: as §1, §2

Pseudomonas aeruginosa = assay: Agar plate disc-diffusion, antibacterial inhibition zone; conditions: Gram negative, nutrient agar, 37° C., 48 h, DMSO zone subtracted
Procedure: as §1, §2

Escherichia coli = assay: as above; conditions: Gram negative, nutrient agar, 37° C., 48 h, DMSO zone subtracted
Procedure: as §1, §2

Bacillus Cereus = assay: as above; conditions: Gram positive, nutrient agar, 37° C., 48 h, DMSO zone subtracted
Procedure: as §1, §2

Staphylococcus aureus = assay: as above; conditions: Gram positive, nutrient agar, 37° C., 48 h, DMSO zone subtracted
Procedure: as §1, §2

[2] = A = concentration of comp. = 10,000 μL
[3] = B = concentration of comp. = 30.000 μL
[4] = C = concentration of comp. = 50,000 μL

Structure (SMILES): CCOc1nc(-c2cccc(Cl)c2)cc(-c2cccnc2)c1C#N [compound 4, 6′-(3-chlorophenyl)-2′-ethoxy-3,4′-bipyridine-3′-carbonitrile]
- inhibition zone, Chrysosporium keratinophilum, A [1, 2]: 24 mm
- inhibition zone, Chrysosporium keratinophilum, B [1, 3]: 26 mm
- inhibition zone, Chrysosporium keratinophilum, C [1, 4]: 47 mm
- inhibition zone, Aspergillus flavus, A (Aspergillus flavus; [2]): 21 mm
- inhibition zone, Aspergillus flavus, B (Aspergillus flavus; [3]): 25 mm
- inhibition zone, Aspergillus flavus, C (Aspergillus flavus; [4]): 36 mm
- inhibition zone, Pseudomonas aeruginosa, A (Pseudomonas aeruginosa; [2]): 22 mm
- inhibition zone, Pseudomonas aeruginosa, B (Pseudomonas aeruginosa; [3]): 29 mm
- inhibition zone, Pseudomonas aeruginosa, C (Pseudomonas aeruginosa; [4]): 38 mm
- inhibition zone, Escherichia coli, A (Escherichia coli; [2]): 26 mm
- inhibition zone, Escherichia coli, B (Escherichia coli; [3]): 36 mm
- inhibition zone, Escherichia coli, C (Escherichia coli; [4]): 48 mm
- inhibition zone, Bacillus Cereus, A (Bacillus Cereus; [2]): 26 mm
- inhibition zone, Bacillus Cereus, B (Bacillus Cereus; [3]): 28 mm
- inhibition zone, Bacillus Cereus, C (Bacillus Cereus; [4]): 40 mm
- inhibition zone, Staphylococcus aureus, A (Staphylococcus aureus; [2]): 19 mm
- inhibition zone, Staphylococcus aureus, B (Staphylococcus aureus; [3]): 26 mm
- inhibition zone, Staphylococcus aureus, C (Staphylococcus aureus; [4]): 33 mm
